Results on eleven compounds are retold here after patent US20260207605A1, “KRAS G12D INHIBITORS AND USES THEREOF” (Abbisko Therapeutics Co., Ltd., priority 2022, published 2026).

The IC50 is the concentration at which inhibition is half-maximal. For orientation: AUC means concentration integrated over time. Higher therefore signals high exposure. By Cmax is commonly meant the peak of the concentration-time curve. By half-life is commonly meant the time in which the quantity being followed falls by half. What is called bioavailability is dose-corrected exposure relative to a reference, in per cent. Low readings indicate poor availability, high ones good availability.

The target of one data set is KRAS^G12D/cRAF (Homo sapiens, UniProt P01116, G12D). Description: KRAS G12D/cRAF binding test (Alphalisa). Particulars: His-tagged KRAS G12D with GMPPNP, GST-tagged cRAF. Here is the method: The compound was dissolved in 100% DMSO at a starting concentration of 5 mM and diluted in DMSO with a 3-fold serial dilution method for a total of 8 concentration points. 1 μL of the compound or DMSO at each concentration point was added into 99 μL of the experimental buffer to obtain 10× stock solution.
(§1) The ratio for each compound concentration was calculated from the signal of the DMSO control group contained in each assay plate and the Alphalisa signal in each compound well. The compound concentration required for inhibitory concentration at 50% (IC50) was determined using a four-parameter logarithmic dose-response equation by testing the concentration of the compound and the value of the ratio. The endpoint value (IC50) of the reference compound was assessed in each experiment as a quality control measure. If the endpoint value is within three times the expected value, the experiment may be considered acceptable.
For orientation: Alpha assays give light when donor and acceptor beads are brought close together.

Another data set has as its system AsPC-1. Description: Anti-proliferative 2D CTG assay, AsPC-1. Particulars: Homo sapiens, ASPC1, 96 h, AsPC-1 cells, 4 days incubation, read-out: AsPC-1 cell IC50. It is filed as cell-based. The method, then:
(§2) 1.1 Day 0 Cell Culture and Plating
(§3) Cells in a logarithmic growth phase were harvested and the cells were counted by using a […]. Cell viability was tested by using a trypan blue exclusion method to ensure that cell viability was above 90%. The cell concentration was adjusted to the desired final density, and 90 μL of cell suspension was added to a 96-well plate, then the cells were incubated overnight at 37° C., 5% CO2 and 95% humidity.
(§4) 10 μL PBS was added to each well of the TO plate containing cells. The CTG reagent was thawed and the plate was equilibrated to room temperature for 30 minutes. The CTG solution of 50 µL/well was added to each well. The cells were lysed by shaking on an orbital shaker for 5 minutes. The plate was left at room temperature for 20 minutes to stabilize the luminescence signal. The TO fluorescence signal value was read.
(§5) From the 10 mM stock solution, with a ratio of 1:5, 9-point serial dilutions were performed. The 10× medium containing the compound was transferred into corresponding wells of the 96 wells. The final maximum compound concentration was […] and the final DMSO concentration was 0.1%. The 96-well plate was placed in a 37° C. incubator and incubated for 4 days.
(§6) 50 μL/well of detection reagent (CTG) was added to the cells, and the signal was read in an Envision machine.
as §1, with “The percent inhibition (%) at” for “The ratio for”, “signal in” for “signal of”, “the HPE and ZPE” for “the DMSO”, “control wells and the fluorescence signal in the individual compound wells included” for “control group contained”, “assay plate. […]” for “assay plate and the Alphalisa signal in each compound well.”, “the inhibition percentage value.” for “the value of the ratio.”

For another data set, the system named is AGS. Description: Anti-proliferative 2D CTG assay, AGS. It is filed as cell-based. As to conditions: AGS cells, 4 days incubation, read-out: AGS cell IC50. Here is the method:
as §2, §3, §4, §5, §6
as §1, with “The percent inhibition (%) at” for “The ratio for”, “signal in” for “signal of”, “the HPE and ZPE” for “the DMSO”, “control wells and the fluorescence signal in the individual compound wells included” for “control group contained”, “assay plate. […]” for “assay plate and the Alphalisa signal in each compound well.”, “the inhibition percentage value.” for “the value of the ratio.”

Data set [1] in a line: Pharmacokinetic experiment in mice (single PO or IV administration). Particulars: male, ICR, mouse, plasma.

Where two headings read alike, the source gives them in different places.

Sequence of KRAS^G12D/cRAF (P01116 1-188 isoform P01116-2 G12D): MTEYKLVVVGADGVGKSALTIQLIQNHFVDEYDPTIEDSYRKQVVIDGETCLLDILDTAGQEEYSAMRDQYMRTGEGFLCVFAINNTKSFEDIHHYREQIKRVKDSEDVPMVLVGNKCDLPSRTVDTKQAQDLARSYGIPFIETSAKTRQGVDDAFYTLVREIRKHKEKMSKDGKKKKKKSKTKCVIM

For `C#Cc1c(F)ccc2cc(O)cc(-c3ncc4c(N5C[C@@H]6CC[C@](CC)(C5)N6)nc(OCC56CC(=C)CN5CC(=C)C6)nc4c3F)c12` [Example 5, 4-(2-((2,6-dimethylenetetrahydro-1H-pyrrolizin-7a(5H)-yl)methoxy)-4-((1R,5S)-1-ethyl-3,8-diazabicyclo[3.2.1]octan-3-yl)-8-fluoropyrido[4,3-d]pyrimidin-7-yl)-5-ethynyl-6-fluoronaphthalen-2-ol], the IC50 on KRAS^G12D/cRAF was 16.5 nM; in the data set on AsPC-1, 45.8 nM; in the data set with AGS (Homo sapiens, AGS, 96 h) it was 14.1 nM.
As to `[2H]C([2H])([2H])OC[C@@]12CC[C@@H](CN(c3nc(OC[C@@]45CCCN4C/C(=C/F)C5)nc4c(F)c(-c5cc(O)cc6ccc(F)c(C#C)c56)ncc34)C1)N2` [Example 84, 5-ethynyl-6-fluoro-4-(8-fluoro-2-(((S,E)-2-(fluoromethylene)tetrahydro-1H-pyrrolizin-7a (5H)-yl)methoxy)-4-((1R,5S)-1-((methoxy-d3)methyl)-3,8-diazabicyclo[3.2.1]octan-3-yl)pyrido[4,3-d]pyrimidin-7-yl) naphthalen-2-ol], the IC50 stood at 3.9 nM at KRAS^G12D/cRAF; 59.3 nM in the data set with AsPC-1; 11.4 nM with AGS (Homo sapiens, AGS, 96 h).
With `[2H]C([2H])([2H])OC[C@@]12CC[C@@H](CN(c3nc(OC[C@@]45CCCN4C/C(=C\F)C5)nc4c(F)c(-c5cc(O)cc6ccc(F)c(C#C)c56)ncc34)C1)N2` [Example 61, 5-ethynyl-6-fluoro-4-(8-fluoro-2-(((Z)-2-(fluoromethylene)tetrahydro-1H-pyrrolizin-7a(5H)-yl)methoxy)-4-((1R,5S)-1-((methoxy-d3)methyl)-3,8-diazabicyclo[3.2.1]octan-3-yl)pyrido[4,3-d]pyrimidin-7-yl)naphthalen-2-ol], the IC50 at KRAS^G12D/cRAF came out at 2.5 nM; with AsPC-1 it was 37.9 nM; in the data set with AGS, 3.4 nM.
As to `C#Cc1c(F)ccc2cc(O)cc(-c3ncc4c(N5C[C@@H]6CC[C@](COC)(C5)N6)nc(OC[C@@]56CCCN5C/C(=C\F)C6)nc4c3F)c12` [Example 58, 5-ethynyl-6-fluoro-4-(8-fluoro-2-(((Z)-2-(fluoromethylene)tetrahydro-1H-pyrrolizin-7a(5H)-yl)methoxy)-4-((1R,5S)-1-(methoxymethyl)-3,8-diazabicyclo [3.2.1]octan-3-yl)pyrido[4,3-d]pyrimidin-7-yl)naphthalen-2-ol], the IC50 at KRAS^G12D/cRAF is 6 nM; in the data set on AsPC-1, 21.8 nM; in the data set on AGS (Homo sapiens, AGS, 96 h), 1.7 nM.
On the same counts, the results for `C#Cc1c(F)ccc2cc(O)cc(-c3ncc4c(N5C[C@@H]6CC[C@](CC)(C5)N6)nc(OC[C@@]56CCCN5C/C(=C/F)C6)nc4c3F)c12` [Example 80, 4-(4-((1R,5S)-1-ethyl-3,8-diazabicyclo[3.2.1]octan-3-yl)-8-fluoro-2-(((S,E)-2-(fluoromethylene)tetrahydro-1H-pyrrolizin-7a (5H)-yl)methoxy)pyrido[4,3-d]pyrimidin-7-yl)-5-ethynyl-6-fluoronaphthalen-2-ol] are 6.2 nM, 39.6 nM and 5.8 nM.
For `C#Cc1c(F)ccc2cc(O)cc(-c3ncc4c(N5C[C@@H]6CC[C@](C7CC7)(C5)N6)nc(OC[C@@]56CCCN5CC(=C)C6)nc4c3F)c12` [Example 29, 4-(4-((1S,5S)-1-cyclopropyl-3,8-diazabicyclo[3.2.1]octan-3-yl)-8-fluoro-2-(((S)-2-methylenetetrahydro-1H-pyrrolizin-7a(5H)-yl)methoxy)pyrido[4,3-d]pyrimidin-7-yl)-5-ethynyl-6-fluoronaphthalen-2-ol] the same measures were 25 nM, 102 nM and 21 nM.
For `[2H]C([2H])([2H])C12CCC(CN(c3nc(OCC45CC(=C)CN4CC(=C)C5)nc4c(F)c(-c5cc(O)cc6ccc(F)c(C#C)c56)ncc34)C1)N2` (stereo not shown) [Example 6, 4-(2-((2,6-dimethylenetetrahydro-1H-pyrrolizin-7a(5H)-yl)methoxy)-8-fluoro-4-(1-(methyl-d3)-3,8-diazabicyclo[3.2.1]octan-3-yl)pyrido[4,3-d]pyrimidin-7-yl)-5-ethynyl-6-fluoronaphtha len-2-ol] the same measures were 3.2 nM, 48.9 nM and 14.3 nM.
On to `C#Cc1c(F)ccc2cc(O)cc(-c3ncc4c(N5C[C@@H]6CC[C@](CC)(C5)N6)nc(OC[C@@]56CCCN5C/C(=C\F)C6)nc4c3F)c12` [Example 55, 4-(4-((1R,5S)-1-ethyl-3,8-diazabicyclo[3.2.1]octan-3-yl)-8-fluoro-2-(((Z)-2-(fluoromethylene)tetrahydro-1H-pyrrolizin-7a (5H)-yl)methoxy)pyrido[4,3-d]pyrimidin-7-yl)-5-ethynyl-6-fl uoronaphthalen-2-ol], for which the IC50 on KRAS^G12D/cRAF was 3 nM; in the data set with AsPC-1 it was 16.3 nM; in the data set on AGS, 1.3 nM.
`C#Cc1c(F)ccc2cc(O)cc(-c3ncc4c(N5C[C@@H]6CC[C@](COC)(C5)N6)nc(OC[C@@]56CCCN5CC(=C)C6)nc4c3F)c12` [Example 22, 5-ethynyl-6-fluoro-4-(8-fluoro-4-((1R,5S)-1-(methoxymethyl)-3,8-diazabicyclo[3.2.1]octan-3-yl)-2-(((S)-2-methylenetetrahydro-1H-pyrrolizin-7a(5H)-yl)methoxy)pyrido[4,3-d]pyrimidin-7-yl)naphthalen-2-ol]: the IC50 on KRAS^G12D/cRAF worked out at 2.9 nM; in the data set with AsPC-1, 14.3 nM; in the data set on AGS (Homo sapiens, AGS, 96 h), 21.7 nM.
For `C#Cc1c(F)ccc2cc(O)cc(-c3ncc4c(N5C[C@@H]6CC[C@](C7CC7)(C5)N6)nc(OCC56CC(=C)CN5CC(=C)C6)nc4c3F)c12` [Example 12, 4-(4-((1S,5S)-1-cyclopropyl-3,8-diazabicyclo[3.2.1]octan-3-yl)-2-((2,6-dimethylenetetrahydro-1H-pyrrolizin-7a(5H)-yl)methoxy)-8-fluoropyrido[4,3-d]pyrimidin-7-yl)-5-ethynyl-6-fluoronaphthalen-2-ol] the same measures were 102 nM, 219 nM and 104 nM.
For `[2H]C([2H])([2H])[C@@]12CC[C@@H](CN(c3nc(OC[C@@]45CCCN4C/C(=C\F)C5)nc4c(F)c(-c5cc(N)cc6ccc(F)c(C#C)c56)ncc34)C1)N2` [Example 355, 5-ethynyl-6-fluoro-4-(8-fluoro-2-(((S,Z)-2-(fluoromethylene)tetrahydro-1H-pyrrolizin-7a(5H)-yl)methoxy)-4-((1R,5S)-1-(methyl-d3)-3,8-diazabicyclo[3.2.1]octan-3-yl)pyrido[4,3-d]pyrimidin-7-yl)naphthalen-2-amine], the 50% inhibitory concentration (IC50) is 11 nM on KRAS^G12D/cRAF; 66.1 nM in the data set with AsPC-1; 17.7 nM in the data set with AGS (Homo sapiens, AGS, 96 h). For the same compound, the AUC was determined as 223 ng·h/mL in data set [1] (iv, 2 mg/kg) and 466 ng·h/mL in data set [1] (po, 10 mg/kg). For the same compound, the Cmax came out at 68.9 ng/mL in data set [1] (iv, 2 mg/kg) and 120 ng/mL in data set [1] (po, 10 mg/kg). Besides, the half-life was 7.2 h in data set [1] (iv, 2 mg/kg) and 9.1 h in data set [1] (po, 10 mg/kg). Also, the bioavailability in data set [1] (po, 10 mg/kg) worked out at 41.7%.
